{"source": "patent US5218000A", "about": "“Therapeutic polyamine-amides” (priority 1988, dated 1993)", "key": {"[1]": {"system": "invertebrate L-quisqualate sub-type L-glutamate receptor and its ion channel", "test": "locust isolated retractor unguis nerve-muscle preparation, twitch amplitude on electrical stimulation", "type": "cell-based, Schistocerca gregaria", "conditions": "for IC50: locust retractor unguis muscle, electrically stimulated", "description": "The compounds were assayed for biological activity on the isolated, retractor unguis nerve-muscle preparation of the locust Schistocerca gregaria (Usherwood, P.N.R and Machili, P. (1968) J. Exp. Biol., 49: 341.). Isolated muscle preparations were bathed continuously in standard locust saline in a bath of volume 250 μl. Twitch tension recordings of the muscle were made to electrical stimulation of its motor innervation supramaximal voltage, frequency 0.1 Hz).\nThe locust isolated retractor unguis nerve-muscle is a preparation with well characterised muscle receptors belonging to the quisqualate-sensitiveclass (Boden, P. et al., (1986) Brain Res., 385: 205.). This preparation has previously been employed to identify antogonists of excitatory amino acid receptors, (e.g. Bateman, A. et al., (1985) Brain Res., 339: 237 and Budd, T. et al., (1988) Brain Res., 448: 30.). Excitatory amino acid receptors are also believed to be of considerable importance in the mammal and for therapeutic applications.\nThe potency of this monoacylated spermine as an antagonist of the complex formed by the invertebrate L-quisqualate sub-type L-glutamate receptor and its ion channel was assayed using the electrically stimulated retractor unguis muscle of the locust (Schistocerca gregaria). Twitch amplitude was reduced ([…]) from control (100%) levels at the following concentrations: […]"}, "NMDA receptor": {"system": "NMDA receptor", "test": "rat cerebral cortex slice (wedge, grease-gap), NMDA-induced depolarisation response", "type": "cell-based, Wistar rats", "conditions": "rat brain slice, Mg2+ omitted", "text": "(§1) Coronal slices of cerebral cortex were cut with a Vibratome from the brains of freshly killed Wistar rats. Wedges of tissue were cut from either side of the mid-line to include the cortex and corpus callosum. The wedges were mounted in a grease-gap apparatus such that the cortex protruded into one compartment and the corpus callosum into the other compartment of a two-compartment bath, (Harrison N. L. & Simmonds M. A. (1985). Br. J. Pharmacol 84: 381-391.). Each compartment could be separately perfused with Krebs bicarbonate medium pre-gassed with 95% 02 /5% CO2 at room temperature. The volume of each compartment was 1.8 ml and the perfusion rate was 2 ml/min. The compartment containing the cortical part of the wedge was also gassed directly so that drugs could be injected into the bath with the perfusion pump stopped. This variant on the published method was adopted to minimise the amount of drug required. The potential difference between the two compartments was recorded continously via Ag/AgCl electrodes. […]\n(§2) The potency of this monoacylated spermine was tested as an antagonist of NMDA- and AMPA- induced response in a rat brain slice model. Electrophysiologically recorded depolarisation responses were reduced from control levels (% inhibition) at the following concentrations: […]"}, "quizqualate receptor": {"system": "quizqualate receptor", "test": "rat cerebral cortex slice (wedge, grease-gap), AMPA-induced depolarisation response", "type": "cell-based, Wistar rats", "conditions": "rat brain slice", "text": "as §1, §2"}, "[2]": {"conditions": "read-out: IC50 (reduction of twitch amplitude)"}, "[3]": {"conditions": "approximate, read-out: concentration at which an approximately 50% reduction of twitch amplitude was obtained"}}, "note": "Like-named read-outs stand apart in the source and are kept apart here.", "data": [{"smiles": "NCCCNCCCCNCCCNC(=O)Cc1ccccc1O", "note": "[Example 1, N-(2-Hydroxyphenylacetyl)-spermine]", "values": [{"measurement": "inhibition of twitch", "setting": "[1]; 1.5 × 10^-4 M", "value": 85, "unit": "%"}, {"measurement": "inhibition of twitch", "setting": "[1]; 1.5 × 10^-5 M", "value": 30, "unit": "%"}, {"measurement": "inhibition of twitch", "setting": "[1]; 3 × 10^-4 M", "value": 90, "unit": "%"}, {"measurement": "inhibition of twitch", "setting": "[1]; 3 × 10^-5 M", "value": 30, "unit": "%"}, {"measurement": "inhibition of twitch", "setting": "[1]; 3 × 10^-6 M", "value": 20, "unit": "%"}, {"measurement": "inhibition of twitch", "setting": "[1]; 3 × 10^-7 M", "value": 15, "unit": "%"}, {"measurement": "inhibition of twitch", "setting": "[1]; 3 × 10^-8 M", "value": 10, "unit": "%"}, {"measurement": "IC50", "setting": "[1]; [2]", "value": 62, "unit": "µM"}]}, {"smiles": "NCCCNCCCCNCCCNC(=O)Cc1cccc(O)c1", "note": "[Example 2, N-(3-Hydroxyphenylacetyl)-spermine]", "values": [{"measurement": "inhibition of twitch", "setting": "[1]; 3 × 10^-7 M", "value": 35, "unit": "%"}, {"measurement": "inhibition of twitch", "setting": "[1]; 3 × 10^-8 M", "value": 30, "unit": "%"}]}, {"smiles": "NCCCNCCCCNCCCNC(=O)Cc1ccc(O)cc1", "note": "[Example 3, N-(4-Hydroxyphenylacetyl)-spermine]", "values": [{"measurement": "inhibition of twitch", "setting": "[1]; 2.95 × 10^-5 M", "value": 74, "unit": "%"}, {"measurement": "inhibition of twitch", "setting": "[1]; 4.43 × 10^-5 M", "value": 91, "unit": "%"}, {"measurement": "inhibition of twitch", "setting": "[1]; 5.9 × 10^-5 M", "value": 96, "unit": "%"}, {"measurement": "inhibition of twitch", "setting": "[1]; 5.9 × 10^-6 M", "value": 25, "unit": "%"}, {"measurement": "inhibition of twitch", "setting": "[1]; 5.9 × 10^-7 M", "value": 9, "unit": "%"}, {"measurement": "IC50", "setting": "[1]; [2]", "value": 8.7, "unit": "µM"}, {"measurement": "% inhibition of NMDA-induced depolarisation response", "setting": "NMDA receptor; 10^-5 M", "value": 35, "unit": "%"}, {"measurement": "% inhibition of NMDA-induced depolarisation response", "setting": "NMDA receptor; 10^-6 M", "value": 29, "unit": "%"}, {"measurement": "% inhibition of AMPA-induced depolarisation response", "setting": "quizqualate receptor; 10^-5 M", "value": 22, "unit": "%"}, {"measurement": "% inhibition of AMPA-induced depolarisation response", "setting": "quizqualate receptor; 10^-6 M", "value": 0, "unit": "%"}]}, {"smiles": "NCCCNCCCCNCCCNC(=O)CCc1ccccc1O", "note": "[Example 4, N-(2-Hydroxyphenylpropanoyl)-spermine]", "values": [{"measurement": "IC50", "setting": "[1]; [3]", "value": "~50", "unit": "µM"}]}, {"smiles": "NCCCNCCCCNCCCNC(=O)CCc1cccc(O)c1", "note": "[Example 5, N-(3-Hydroxyphenylpropanoyl)-spermine]", "values": [{"measurement": "inhibition of twitch", "setting": "[1]; 1.08 × 10^-6 M", "value": 15, "unit": "%"}, {"measurement": "inhibition of twitch", "setting": "[1]; 1.08 × 10^-7 M", "value": 10, "unit": "%"}]}, {"smiles": "NCCCNCCCCNCCCNC(=O)C=Cc1ccc(O)cc1", "note": "[Example 6, N-(4-Hydroxycinnamoyl)-spermine]", "values": [{"measurement": "inhibition of twitch", "setting": "[1]; 10^-5 M", "value": 70, "unit": "%"}, {"measurement": "inhibition of twitch", "setting": "[1]; 10^-6 M", "value": 56, "unit": "%"}, {"measurement": "inhibition of twitch", "setting": "[1]; 10^-7 M", "value": 33, "unit": "%"}, {"measurement": "inhibition of twitch", "setting": "[1]; 10^-8 M", "value": 24, "unit": "%"}, {"measurement": "inhibition of twitch", "setting": "[1]; 10^-9 M", "value": 18, "unit": "%"}, {"measurement": "inhibition of twitch", "setting": "[1]; 10^-10 M", "value": 4, "unit": "%"}, {"measurement": "IC50", "setting": "[1]; [2]", "value": 60, "unit": "µM"}]}, {"smiles": "NCCCNCCCCNCCCNC(=O)Cc1ccc(O)cc1O", "note": "[Example 7, N-(2,4-Dihydroxyphenylacetyl)-spermine]", "values": [{"measurement": "IC50", "setting": "[1]; [3]", "value": "~50", "unit": "µM"}]}, {"smiles": "NCCCNCCCCNCCCNC(=O)Cc1ccc(O)c(O)c1", "note": "[Example 8, N-(3,4-Dihydroxyphenylacetyl)-spermine]", "values": [{"measurement": "IC50", "setting": "[1]; [3]", "value": "~500", "unit": "µM"}]}, {"smiles": "NCCCNCCCCNCCCNC(=O)Cc1cc(O)cc(O)c1", "note": "[Example 9, N-(3,5-Dihydroxyphenylacetyl)-spermine]", "values": [{"measurement": "inhibition of twitch", "setting": "[1]; 1 07 × 10^-6 M", "value": 25, "unit": "%"}, {"measurement": "inhibition of twitch", "setting": "[1]; 1.07 × 10^-5 M", "value": 45, "unit": "%"}]}, {"smiles": "NCCCNCCCCNCCCNC(=O)c1ccccc1O", "note": "[Example 10]", "values": [{"measurement": "reduction of twitch amplitude from control level", "setting": "[1]; 1.09×10^-5 M, 10.9 µM", "value": "approximately 25%"}]}, {"smiles": "NCCCNCCCCNCCCNC(=O)c1cccc(O)c1", "note": "[Example 11, N-(3-Hydroxybenzoyl)-spermine]", "values": [{"measurement": "reduction of twitch amplitude from control levels", "setting": "[1]; 1.02×10^-5 M, 10.2 µM", "value": "approximately 40%"}]}, {"smiles": "NCCCNCCCCNCCCNC(=O)c1ccc(O)cc1", "note": "[Example 12, N-(4-Hydroxybenzoyl)-spermine]", "values": [{"measurement": "IC50", "setting": "[1]; [3]", "value": "~50", "unit": "µM"}]}, {"smiles": "NCCCNCCCCNCCCNC(=O)C=Cc1cccc(O)c1", "note": "[Example 13, N-(3-Hydroxycinnamoyl)-spermine]", "values": [{"measurement": "reduction of twitch amplitude from control levels", "setting": "[1]; 9.2×10^-7 M, 0.92 µM", "value": "approximately 25%"}]}, {"smiles": "NCCCNCCCCNCCCNC(=O)Cc1ccc(O)c(F)c1", "note": "[Example 14, N-(3-Fluoro-4-hydroxyphenylacetyl)-spermine]", "values": [{"measurement": "IC50", "setting": "[1]; [3]", "value": "~500", "unit": "µM"}]}, {"smiles": "COc1ccccc1CC(=O)NCCCNCCCCNCCCN", "note": "[Example 15, N-(2-Methoxyphenylacetyl)-spermine]", "values": [{"measurement": "IC50", "setting": "[1]; [3]", "value": "~500", "unit": "µM"}]}, {"smiles": "COc1ccc(CC(=O)NCCCNCCCCNCCCN)cc1", "note": "[Example 16, N-(4-Methoxyphenylacetyl)-spermine]", "values": [{"measurement": "IC50", "setting": "[1]; [3]", "value": "~500", "unit": "µM"}]}, {"smiles": "COc1ccccc1CC(=O)NCCCNCCCNCCCN", "note": "[Example 17, N-(2-Methoxyphenylacetyl)-N',N\"-bis(3-aminopropyl)-1,3-propanediamine]", "values": [{"measurement": "IC50", "setting": "[1]; [3]", "value": "~900", "unit": "µM"}]}, {"smiles": "COc1ccc(CC(=O)NCCCNCCCNCCCN)cc1", "note": "[Example 18, N-(4-Methoxyphenylacetyl)-N',N\"-bis(3-aminopropyl)-1,3-propanediamine]", "values": [{"measurement": "IC50", "setting": "[1]; [3]", "value": "~900", "unit": "µM"}]}, {"smiles": "NCCCNCCCNCCCNC(=O)Cc1ccccc1O", "note": "[Example 19, N-(2-Hydroxyphenylacetyl)-N',N\"-bis(3-aminopropyl)-1,3-propanediamine]", "values": [{"measurement": "IC50", "setting": "[1]; [3]", "value": "~900", "unit": "µM"}]}, {"smiles": "NCCCNCCCNCCCNC(=O)Cc1cccc(O)c1", "note": "[Example 20, N-(3-Hydroxyphenylacetyl)-N',N\"-bis(3-aminopropyl)-1,3-propanediamine]", "values": [{"measurement": "reduction of twitch amplitude from control levels", "setting": "[1]; 1.04×10^-4 M, 104 µM", "value": "approximately 60%"}]}, {"smiles": "NCCCNCCCNCCCNC(=O)Cc1ccc(O)cc1", "note": "[Example 21, N-(4-Hydroxyphenylacetyl)-N',N\"-bis(3-aminopropyl)-1,3-propanediamine]", "values": [{"measurement": "reduction of twitch amplitude from control levels", "setting": "[1]; 1×10^-4 M, 100 µM", "value": "approximately 30%"}, {"measurement": "IC50", "setting": "[1]; [3]", "value": "~900", "unit": "µM"}]}]}
